Measurements published in patent publication US9663496B2, “AMPK-activating heterocyclic compounds and methods for using the same” (Rigel Pharmaceuticals, Inc., priority 2010, dated 2017).

Target: AMPK
Assay: AMPK activation, enzyme-linked immunosorbent assay
Format: biochemical
Details: EC50 for AMPK activation, ELISA
Summary of the method: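 Kit-based immunoassay; compounds screened as activators; standard reagents and protocol.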

Compound	EC50 [µM]
COc1ccc(C(=O)C2CCN(C(=O)c3ccc(C(=O)NC4CCN(Cc5ccc(F)cc5)CC4)nc3)CC2)cc1 [Compound 178, N-(1-(4-fluorobenzyl)piperidin-4-yl)-5-(4-(4-methoxybenzoyl)piperidine-1-carbonyl)picolinamide]	< 0.5
COc1ccc(C(=O)C2CCN(C(=O)c3ccc(C(=O)N[C@H]4CCN(Cc5ccc(C#N)cc5)C[C@H]4F)cn3)CC2)cc1 (relative stereo) [Compound 454, N-((cis)-1-(4-cyanobenzyl)-3-fluoropiperidin-4-yl)-6-(4-(4-methoxybenzoyl)piperidine-1-carbonyl)nicotinamide]	< 0.5
N#Cc1ccc(CN2CCC(NC(=O)c3ccc(NC4CCN(c5ccc(F)cc5)CC4)cn3)CC2)cc1 [Compound 276, N-(1-(4-cyanobenzyl)piperidin-4-yl)-5-(1-(4-fluorophenyl)piperidin-4-ylamino)picolinamide]	< 0.5
N#Cc1ccc(CN2CCC(NC(=O)c3ccc(C(=O)N4CCC(C(O)c5ccc(F)cc5)CC4)cn3)CC2)cc1 (stereo not shown) [Compound 142, N-(1-(4-cyanobenzyl)piperidin-4-yl)-5-(4-((4-fluorophenyl)(hydroxy)methyl)piperidine-1-carbonyl)picolinamide]	< 0.5
COc1ccc(CN2CCC(NC(=O)c3ccc(C(=O)N4CCC(Oc5ccc(S(C)(=O)=O)cc5)CC4)nc3)CC2)cc1 [Compound 237, N-(1-(4-methoxybenzyl)piperidin-4-yl)-6-(4-(4-(methylsulfonyl)phenoxy)piperidine-1-carbonyl)nicotinamide]	1 to 5
O=C(Nc1ccc(C(=O)N2CCN(Cc3ccc(F)cc3)CC2)cn1)c1ccc(Oc2ccc(F)cc2)nc1 [Compound 177, N-(5-(4-(4-fluorobenzyl)piperazine-1-carbonyl)pyridin-2-yl)-6-(4-fluorophenoxy) nicotinamide]	1 to 5
O=C(NC1CCN(c2ccc(F)cc2)CC1)c1ccc(C(=O)N2CCN(Cc3ccc(F)cc3)CC2)nc1 [Compound 404, 6-(4-(4-fluorobenzyl)piperazine-1-carbonyl)-N-(1-(4-fluorophenyl)piperidin-4-yl)nicotinamide]	1 to 5
CS(=O)(=O)c1ccc(OC2CCN(C(=O)c3ccc(C(=O)NC4CCN(Cc5ccc(C#N)cc5)CC4)nn3)CC2)cc1 [Compound 399, N-(1-(4-cyanobenzyl)piperidin-4-yl)-6-(4-(4-(methylsulfonyl)phenoxy)piperidine-1-carbonyl)pyridazine-3-carboxamide]	< 0.5
N#Cc1ccc(CN2CCC(NC(=O)c3ccc(C(=O)N4CCC(C(=O)c5ccc(Cl)cc5)CC4)cn3)CC2)cc1 [Compound 154, 5-(4-(4-chlorobenzoyl)piperidine-1-carbonyl)-N-(1-(4-cyanobenzyl)piperidin-4-yl)picolinamide]	< 0.5
COc1ccc(C(=O)C2CCN(C(=O)c3ccc(C(=O)Nc4ccc(Oc5ccc(C#N)cc5)nc4C)cn3)CC2)cc1 [Compound 478, N-(6-(4-cyanophenoxy)-2-methylpyridin-3-yl)-6-(4-(4-methoxybenzoyl)piperidine-1-carbonyl)nicotinamide]	< 0.5
COc1ccc(OC2CCN(C(=O)c3ccc(C(=O)N[C@H]4CC[C@@H](Oc5ccc(C(F)(F)F)cc5)CC4)nc3)CC2)cc1 [Compound 191, 5-(4-(4-methoxyphenoxy)piperidine-1-carbonyl)-N-((cis)-4-(4-(trifluoromethyl)phenoxy)cyclohexyl) picolinamide]	< 0.5
COc1ccc(C(=O)C2CCN(C(=O)c3ccc(C(=O)Nc4ccc(Oc5ccc(S(C)(=O)=O)cc5)nc4)cn3)CC2)cc1 [Compound 465, 6-(4-(4-methoxybenzoyl)piperidine-1-carbonyl)-N-(6-(4-(methylsulfonyl)phenoxy)pyridin-3-yl)nicotinamide]	< 0.5
O=C(Nc1ccc(-c2ccccc2)cc1)c1ccc(C(=O)N2CCN(Cc3ccc(F)cc3)CC2)cn1 [Compound 11]	< 0.5
